According to patent US8796256B2 (Janssen Pharmaceutica NV, priority 2010, dated 2014):

Target: T1, ERR1 (also known as ERR-α or ERR-1) (Homo sapiens, UniProt P11474)
T1 sequence (P11474 193-421 limits assumed): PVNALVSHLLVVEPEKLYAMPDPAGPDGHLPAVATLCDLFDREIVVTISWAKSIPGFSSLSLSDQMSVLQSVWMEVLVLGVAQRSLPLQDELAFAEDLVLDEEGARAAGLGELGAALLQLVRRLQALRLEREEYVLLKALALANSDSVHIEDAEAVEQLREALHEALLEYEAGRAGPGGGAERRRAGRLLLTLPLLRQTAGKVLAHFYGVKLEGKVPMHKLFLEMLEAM
Assay: TR-FRET assay (disruption of co-activator peptide binding to ERR1 LBD)
Format: biochemical
Settings: 6 nM 6His-ERR1LBD, 6 nM GST-SRC-2 peptide; average of 3 independent experiments
Protocol: Time-Resolved Fluorescence Resonance Energy Transfer (TR-FRET) experiments were performed to examine the functional response of ERR1 (also known as ERR-α or ERR-1) ligands. The TR-FRET assay described herein relied on the conformation of ERR1 for binding to a co-activator peptide: when a test compound binds to ERR1 and alters its conformation, it can disrupt the binding of the co-activator peptide. The components of this homogeneous secondary assay included: the ^6His-tagged-ERR1LBD, a GST-labeled-hSRC2 co-activator polypeptide and a fluorescent donor/acceptor pair from CIS bio international htrf/bioassays (Bedford, Mass.) using both an α-GST Europium (Eu) Cryptate label and an α^6His-XL665 (allophycocyanin) fluorophore.
For TR-FRET measurements, the reaction was buffered in 25 mM Tris pH 8, 2.5 mM Hepes, 20 mM KCl, 1 mM DTT, and 0.05 mg/mL BSA (delipidated). The final concentrations of reagents were 6 nM of ERR1LBD, 6 nM GST-SRC-2 peptide, 30 nM Eu cryptate, and 7.5 nM a^6His-XL665. Reactions were allowed to reach equilibrium at 25° C. for 4-18 h before collecting data on the Analyst from LJL Biosystems (Molecular Devices Sunnyvale, Calif.). […] Dose response curves were fitted using a hyperbolic equation and the data reported is the average of 3 independent experiments.

SMILES	EC50
CN1C[C@@H](N2C(=O)S/C(=C\c3ccc4c(cnn4Cc4ccc(Cl)cc4C(F)(F)F)c3)C2=O)[C@@H](F)C1 (relative stereo) [Compound 323, (5Z)-5-({1-[4-Chloro-2-(trifluoromethyl)benzyl]-1H-indazol-5-yl}methylidene)-3-[cis-4-fluoro-1-methylpyrrolidin-3-yl]-1,3-thiazolidine-2,4-dione]	54 nM
CCN1C[C@@H](N2C(=O)S/C(=C\c3ccc4c(cnn4Cc4ccc(Cl)cc4C(F)(F)F)c3)C2=O)[C@@H](F)C1 (relative stereo) [Compound 324, (5Z)-5-({1-[4-Chloro-2-(trifluoromethyl)benzyl]-1H-indazol-5-yl}methylidene)-3-[cis-1-ethyl-4-fluoropyrrolidin-3-yl]-1,3-thiazolidine-2,4-dione]	33 nM
CC(C)N1C[C@@H](N2C(=O)S/C(=C\c3ccc4c(cnn4Cc4ccc(Cl)cc4C(F)(F)F)c3)C2=O)[C@@H](F)C1 (relative stereo) [Compound 325, (5Z)-5-({1-[4-Chloro-2-(trifluoromethyl)benzyl]-1H-indazol-5-yl}methylidene)-3-[cis-4-fluoro-1-(1-methylethyl)pyrrolidin-3-yl]-1,3-thiazolidine-2,4-dione]	87 nM
O=C1S/C(=C\c2ccc3c(cnn3Cc3ccc(Cl)cc3C(F)(F)F)c2)C(=O)N1[C@@H]1CCN(CCO)C[C@H]1F (relative stereo) [Compound 327, (5Z)-5-({1-[4-Chloro-2-(trifluoromethyl)benzyl]-1H-indazol-5-yl}methylidene)-3-[trans-3-fluoro-1-(2-hydroxyethyl)piperidin-4-yl]-1,3-thiazolidine-2,4-dione]	21 nM
CC(C)N1CC[C@@H](N2C(=O)S/C(=C\c3ccc4c(cnn4Cc4ccc(Cl)cc4C(F)(F)F)c3)C2=O)[C@H](F)C1 (relative stereo) [Compound 328, (5Z)-5-({1-[4-Chloro-2-(trifluoromethyl)benzyl]-1H-indazol-5-yl}methylidene)-3-[trans-3-fluoro-1-(1-methylethyl)piperidin-4-yl]-1,3-thiazolidine-2,4-dione]	152 nM
[2H]C([2H])([2H])N1CC[C@@H](N2C(=O)S/C(=C\c3ccc4c(cnn4Cc4ccc(Cl)cc4C(F)(F)F)c3)C2=O)[C@H](F)C1 (relative stereo) [Compound 329, (5Z)-5-({1-[4-Chloro-2-(trifluoromethyl)benzyl]-1H-indazol-5-yl}methylidene)-3-[trans-3-fluoro-1-(1,1,1-d3)-methylpiperidin-4-yl]-1,3-thiazolidine-2,4-dione]	15 nM
[2H]C([2H])([2H])N1CC[C@@H](N2C(=O)S/C(=C\c3ccc4c(cnn4Cc4ccc(C(F)(F)F)cc4C(F)(F)F)c3)C2=O)[C@H](F)C1 (relative stereo) [Compound 330, (5Z)-5-({1-[2,4-Bis(trifluoromethyl)benzyl]-1H-indazol-5-yl}methylidene)-3-[trans-3-fluoro-1-(1,1,1-d3)-methylpiperidin-4-yl]-1,3-thiazolidine-2,4-dione]	91 nM
CC(C)N1CC[C@@H](N2C(=O)S/C(=C\c3ccc4c(cnn4Cc4ccc(C(F)(F)F)cc4C(F)(F)F)c3)C2=O)[C@H](F)C1 (relative stereo) [Compound 331, (5Z)-5-({1-[2,4-Bis(trifluoromethyl)benzyl]-1H-indazol-5-yl}methylidene)-3-[trans-3-fluoro-1-(1-methylethyl)piperidin-4-yl]-1,3-thiazolidine-2,4-dione]	238 nM
CCN1CC[C@@H](N2C(=O)S/C(=C\c3ccc4c(cnn4Cc4ccc(Cl)cc4C(F)(F)F)c3)C2=O)[C@@H](F)C1 (relative stereo) [Compound 332, (5Z)-5-({1-[4-Chloro-2-(trifluoromethyl)benzyl]-1H-indazol-5-yl}methylidene)-3-[cis-1-ethyl-3-fluoropiperidin-4-yl]-1,3-thiazolidine-2,4-dione]	110 nM
Cc1nn(Cc2ccc(Cl)cc2C(F)(F)F)c2ccc(/C=C3\SC(=O)N([C@@H]4CCNC[C@H]4F)C3=O)cc12 (relative stereo) [Compound 333, (5Z)-5-({1-[4-Chloro-2-(trifluoromethyl)benzyl]-3-methyl-1H-indazol-5-yl}methylidene)-3-[trans-3-fluoropiperidin-4-yl]-1,3-thiazolidine-2,4-dione]	48 nM
CCN1CC[C@@H](N2C(=O)S/C(=C\c3ccc4c(c3)c(C)nn4Cc3ccc(Cl)cc3C(F)(F)F)C2=O)[C@H](F)C1 (relative stereo) [Compound 334, (5Z)-5-({1-[4-Chloro-2-(trifluoromethyl)benzyl]-3-methyl-1H-indazol-5-yl}methylidene)-3-[trans-1-ethyl-3-fluoropiperidin-4-yl]-1,3-thiazolidine-2,4-dione]	48 nM
Cc1nn(Cc2ccc(Cl)cc2C(F)(F)F)c2ccc(/C=C3\SC(=O)N([C@@H]4CCN(C)C[C@H]4F)C3=O)cc12 (relative stereo) [Compound 335, (5Z)-5-({1-[4-Chloro-2-(trifluoromethyl)benzyl]-3-methyl-1H-indazol-5-yl}methylidene)-3-[trans-3-fluoro-1-methylpiperidin-4-yl]-1,3-thiazolidine-2,4-dione]	46 nM
CCN1CC[C@@H](N2C(=O)S/C(=C\c3ccc4c(cnn4Cc4ccc(C(F)(F)F)cc4C(F)(F)F)c3)C2=O)[C@H](F)C1 (relative stereo) [Compound 336, (5Z)-5-({1-[2,4-Bis(trifluoromethyl)benzyl]-1H-indazol-5-yl}methylidene)-3-[trans-1-ethyl-3-fluoropiperidin-4-yl]-1,3-thiazolidine-2,4-dione]	293 nM
N#CCN1CC[C@@H](N2C(=O)S/C(=C\c3ccc4c(cnn4Cc4ccc(Cl)cc4C(F)(F)F)c3)C2=O)[C@H](F)C1 (relative stereo) [Compound 338]	24 nM
CCN1CC[C@@H](N2C(=O)S/C(=C\c3ccc4c(cnn4Cc4ccc(Cl)cc4C(F)(F)F)c3)C2=O)[C@H](F)C1 (single isomer, unassigned) [Compound 326, (5Z)-5-({1-[4-Chloro-2-(trifluoromethyl)benzyl]-1H-indazol-5-yl}methylidene)-3-[trans-1-ethyl-3-fluoropiperidin-4-yl]-1,3-thiazolidine-2,4-dione]	140 nM
O=C1S/C(=C\c2ccc3c(cnn3Cc3ccc(Cl)cc3C(F)(F)F)c2)C(=O)N1C[C@@H]1C[C@H](O)CN1 (stereo in doubt) [Compound 286, (5Z)-5-({1-[4-Chloro-2-(trifluoromethyl)benzyl]-1H-indazol-5-yl}methylidene)-3-{[(2S,4S)-4-hydroxypyrrolidin-2-yl]methyl}-1,3-thiazolidine-2,4-dione]	456 nM
O=C1S/C(=C\c2ccc3c(cnn3Cc3ccc(Cl)cc3C(F)(F)F)c2)C(=O)N1CCN1CC[C@H](O)C1 [Compound 1]	130 nM
O=C1S/C(=C\c2ccc3c(cnn3Cc3ccc(Cl)cc3C(F)(F)F)c2)C(=O)N1CCN1CC[C@H](F)C1 [Compound 2, (5Z)-5-({1-[4-Chloro-2-(trifluoromethyl)benzyl]-1H-indazol-5-yl}methylidene)-3-{2-[(3S)-3-fluoro-pyrrolidin-1-yl]ethyl}-1,3-thiazolidine-2,4-dione]	185 nM
O=C1S/C(=C\c2ccc3c(cnn3Cc3ccc(Cl)cc3C(F)(F)F)c2)C(=O)N1CCN1CCOCC1 [Compound 3, (5Z)-5-({1-[4-Chloro-2-(trifluoromethyl)benzyl]-1H-indazol-5-yl}methylidene)-3-(2-morpholin-4-ylethyl)-1,3-thiazolidine-2,4-dione]	43 nM
CN(C)CCN1C(=O)S/C(=C\c2ccc3c(cnn3Cc3ccc(F)cc3C(F)(F)F)c2)C1=O [Compound 5, (5Z)-3-[2-(Dimethylamino)ethyl]-5-[(1-{[4-fluoro-2-(trifluoromethyl)phenyl]methyl}-1H-indazol-5-yl)methylidene]-1,3-thiazolidine-2,4-dione]	180 nM
CN(C)CCCN1C(=O)S/C(=C\c2ccc3c(cnn3Cc3ccc(C(F)(F)F)cc3C(F)(F)F)c2)C1=O [Compound 6, (5Z)-5-[(1-{[2,4-Bis(trifluoromethyl)-phenyl]methyl}-1H-indazol-5-yl)methylidene]-3-[3-(dimethylamino)-propyl]-1,3-thiazolidine-2,4-dione]	35 nM
CN(C)CCN1C(=O)S/C(=C\c2ccc3c(cnn3Cc3ccc(C(F)(F)F)cc3C(F)(F)F)c2)C1=O [Compound 7, (5Z)-5-[(1-{[2,4-Bis(trifluoromethyl)-phenyl]methyl}-1 H-indazol-5-yl)methylidene]-3-[2-(dimethylamino)-ethyl]-1,3-thiazolidine-2,4-dione]	33 nM
COc1ccc(Cn2ncc3cc(/C=C4\SC(=O)N(CCN(C)C)C4=O)ccc32)c(C(F)(F)F)c1 [Compound 9, (5Z)-3-[2-(Dimethylamino)ethyl]-5-[(1-{[4-(methyloxy)-2-(trifluoromethyl)phenyl]-methyl}-1H-indazol-5-yl)methylidene]-1,3-thiazolidine-2,4-dione]	4 nM
